Measured values: patent publication US7659394B2 (Pfizer Inc, priority 2004, dated 2010)

Legend:
[1] = target: T1, human seritonin transporter (Homo sapiens, UniProt P31645); assay: hSERT receptor binding ([125I]-RTI-55 radioligand binding); details: membranes of HEK-293 cells transfected with human seritonin transporter, IC50 converted to Ki by Cheng-Prusoff, read-out: SERT (Ki)
T1 construct: host or cells: HEK-293

[2] = target: T2, human norepinephrine transporter (Homo sapiens, UniProt P23975); assay: hNET receptor binding ([125I]-RTI-55 radioligand binding); details: membranes of HEK-293 cells transfected with human norepinephrine transporter, IC50 converted to Ki by Cheng-Prusoff, read-out: hNET (Ki)
T2 construct: host or cells: HEK-293
Procedure, shortened: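 Membranes from HEK-293 cells transfected with human NET. Nonspecific binding defined with 10 μM desipramine, duplicates. IC50 by nonlinear regression, converted to Ki with Cheng-Prusoff.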

T2 sequence (P23975 whole entry): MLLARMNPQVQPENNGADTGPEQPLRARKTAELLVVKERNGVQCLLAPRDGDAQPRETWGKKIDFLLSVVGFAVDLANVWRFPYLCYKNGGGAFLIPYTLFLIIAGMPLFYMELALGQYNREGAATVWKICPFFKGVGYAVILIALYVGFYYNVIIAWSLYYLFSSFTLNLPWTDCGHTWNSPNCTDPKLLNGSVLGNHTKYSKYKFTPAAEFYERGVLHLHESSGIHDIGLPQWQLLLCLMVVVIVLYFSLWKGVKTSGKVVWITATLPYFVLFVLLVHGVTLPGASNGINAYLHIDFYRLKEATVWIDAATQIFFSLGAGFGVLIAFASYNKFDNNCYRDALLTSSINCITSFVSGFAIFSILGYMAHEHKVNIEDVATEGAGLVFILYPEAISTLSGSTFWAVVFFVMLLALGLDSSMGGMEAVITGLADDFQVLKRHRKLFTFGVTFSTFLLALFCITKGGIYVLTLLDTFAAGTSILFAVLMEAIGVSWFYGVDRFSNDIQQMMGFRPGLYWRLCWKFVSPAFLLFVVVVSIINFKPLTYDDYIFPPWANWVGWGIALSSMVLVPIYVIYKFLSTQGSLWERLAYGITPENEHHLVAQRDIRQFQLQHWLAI
T1 sequence (P31645 whole entry): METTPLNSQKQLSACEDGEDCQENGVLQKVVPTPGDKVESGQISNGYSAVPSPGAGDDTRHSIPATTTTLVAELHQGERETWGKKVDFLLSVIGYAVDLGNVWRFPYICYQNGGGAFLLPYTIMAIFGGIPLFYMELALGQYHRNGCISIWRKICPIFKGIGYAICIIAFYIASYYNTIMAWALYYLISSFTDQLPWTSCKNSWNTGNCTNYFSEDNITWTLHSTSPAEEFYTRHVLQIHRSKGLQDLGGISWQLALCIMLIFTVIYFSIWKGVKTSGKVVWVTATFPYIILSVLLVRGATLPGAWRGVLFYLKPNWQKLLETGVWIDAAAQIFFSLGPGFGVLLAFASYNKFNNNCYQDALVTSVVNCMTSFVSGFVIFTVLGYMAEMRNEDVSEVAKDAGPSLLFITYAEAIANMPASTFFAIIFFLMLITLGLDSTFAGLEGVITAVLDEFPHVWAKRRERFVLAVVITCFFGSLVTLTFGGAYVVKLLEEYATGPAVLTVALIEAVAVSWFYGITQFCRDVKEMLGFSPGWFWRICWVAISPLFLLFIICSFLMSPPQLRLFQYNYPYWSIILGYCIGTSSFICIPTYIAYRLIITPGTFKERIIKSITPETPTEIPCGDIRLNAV

Row | SMILES | Ki [1] [nM] | Ki [2] [nM] | melting point [°C]
1 | Oc1ccccc1O[C@@H](c1ccccc1)[C@@H]1CNCCO1 [Example 50, (2S,3S)-2-(Morpholin-2-yl-phenyl-methoxy)-phenol] | 6260 | 5.2 | 156 to 158
2 | CCOCc1ccccc1O[C@@H](c1ccccc1)[C@@H]1CNCCO1 [Example 63, (S)-2-[(S)-(2-Ethoxymethyl-phenoxy)-phenyl-methyl]-morpholine] | 2540 | 28 | –
3 | c1ccc([C@H](Oc2ccccc2C2CCCC2)[C@@H]2CNCCO2)nc1 [Example 132, (2S)-2-[(S)-(2-cyclopentylphenoxy)(pyridin-2-yl)methyl]morpholine] | 6120 | 18 | –
4 | c1ccc([C@H](Oc2ccccc2CC2CC2)[C@@H]2CNCCO2)cc1 [Example 61, (S)-2-[(S)-(2-Cyclopropylmethyl-phenoxy)-phenyl-methyl]-morpholine] | 6600 | 68 | –
5 | c1ccc([C@H](Oc2cccc3c2CCC3)[C@@H]2CNCCO2)nc1 [Example 110, (2S)-2-[(S)-(2,3-dihydro-1H-inden-4-yloxy)(pyridin-2-yl)methyl]morpholine] | 356 | 8.57 | –
6 | FC(F)(F)c1ccccc1O[C@@H](c1ccccc1)[C@@H]1CNCCO1 [Example 8, (S)-2-[(S)-Phenyl-(2-trifluoromethyl-phenoxy)-methyl]-morpholine] | 4710 | 4.2 | –
7 | Fc1ccc(-c2cc(F)ccc2OCC2CNCCO2)cc1 [Example 76, (R)- and (S)-2-(5,4′-Difluoro-biphenyl-2-yloxymethyl)-morpholine] | 349 | 64 | –
8 | CC(Oc1ccccc1Oc1ccc(F)cc1)[C@@H]1CNCCO1 (stereo partly drawn) [Example 151, (2S)-2-{1-[2-(4-fluorophenoxy)phenoxy]ethyl}morpholine] | 3290 | 4 | –
9 | Fc1ccc(Oc2ncccc2OC[C@@H]2CNCCO2)cc1 [Example 32, (S)-2-[2-(4-Fluoro-phenoxy)-pyridin-3-yloxymethyl]-morpholine] | ≥ 10000 | 36 | –
10 | C=CCc1ccccc1O[C@@H](c1ccccc1)[C@@H]1CNCCO1 [Example 39, (S)-2-[(S)-(2-Allyl-phenoxy)-phenyl-methyl]-morpholine] | 475 | 3.7 | –
11 | Cc1ccc(-c2ncccc2O[C@@H](c2ccccc2)[C@@H]2CNCCO2)cc1 [Example 42, (S)-2-[(S)-Phenyl-(2-p-tolyl-pyridin-3-yloxy)-methyl]-morpholine] | 4940 | 68 | –
12 | COc1c(F)cccc1OC(c1ccccc1)[C@@H]1CNCCO1 (stereo partly drawn) [Example 168, (2S)-2-[(3-fluoro-2-methoxyphenoxy)(phenyl)methyl]morpholine] | 791 | 5 | –
13 | Fc1cccc(C2CC2)c1O[C@@H](c1ccccc1)C1CNCCO1 (stereo in doubt) [Example 184, (2S)-2-[(S)-(2-cyclopropyl-6-fluorophenoxy)(phenyl)methyl]morpholine] | 460 | 6 | –
14 | CCC[C@H](Oc1cccnc1OCC)[C@@H]1CNCCO1 [Example 191, (2S)-2-{(1S)-1-[(2-ethoxypyridin-3-yl)oxy]butyl}morpholine] | 5830 | 6 | –
15 | CC(C)Cc1ccccc1O[C@@H](c1ccccc1)[C@@H]1CNCCO1 [Example 3, (S)-2-[(S)-(2-isobutyl-phenoxy)-phenyl-methyl]-morpholine] | 1580 | 33 | –
16 | CCOc1ccccc1OC(CC1CCCCC1)[C@@H]1CNCCO1 (stereo partly drawn) [Example 37, (S)-2-[(S)-2-Cyclohexyl-1-(2-ethoxy-phenoxy)-ethyl]-morpholine and (2S,3-R)-2-[2-Cyclohexyl-1-(2-ethoxy-phenoxy)-ethyl]-morpholine] | 163 | 12 | –
17 | Fc1ccc(O[C@H](c2ccccn2)[C@H]2CNCCO2)c(F)c1 [Example 27] | 412 | 7900 | –
18 | CCOc1ccccc1O[C@H](c1ccccn1)[C@H]1CNCCO1 [Example 181, (2R)-2-[(R)-(2-ethoxyphenoxy)(pyridin-2-yl)methyl]morpholine] | 4900 | 225 | –
19 | c1ccc(Cc2ccccc2O[C@@H](c2ccccc2)[C@@H]2CNCCO2)cc1 [Example 9, (S)-2-[(S)-(2-Benzyl-phenoxy)-phenyl-methyl]-morpholine] | 967 | 15 | –
20 | Fc1ccc(Oc2ncccc2O[C@@H](c2ccccc2)[C@@H]2CNCCO2)cc1 [Example 65, (S)-2-{(S)-[2-(4-Fluoro-phenoxy)-pyridin-3-yloxy]-phenyl-methyl}-morpholine] | 1200 | 85 | –
21 | CC(C)Oc1ccccc1O[C@@H](c1ccccn1)[C@@H]1CNCCO1 [Example 126, (2S)-2-[(S)-(2-isopropoxyphenoxy)(pyridin-2-yl)methyl]morpholine] | ≥ 10000 | 32 | –

Row | SMILES | Ki [1] [nM] | Ki [2] [nM] | melting point [°C]
22 | FCCOc1ccccc1O[C@@H](c1ccccc1)[C@@H]1CNCCO1 [Example 58, (S)-2-{(S)-[2-(2-Fluoro-ethoxy)-phenoxy]-phenyl-methyl}-morpholine] | 965 | 7.4 | –
23 | c1ccc(O[C@@H](c2ccccc2)[C@@H]2CNCCO2)cc1 [Example 80, (S)-2-((S)-Phenoxy-phenyl-methyl)-morpholine] | 3670 | 7.5 | –
24 | CC(C)Oc1ccccc1O[C@@H](c1ccccc1)[C@@H]1CNCCO1 [Example 46, (S)-2-[(S)-(2-Isopropoxy-phenoxy)-phenyl-methyl]-morpholine] | 5630 | 6.5 | –
25 | CCc1ccnc([C@H](Oc2c(F)cccc2OC)[C@@H]2CNCCO2)c1 [Example 141, (2S)-2-[(S)-(4-ethylpyridin-2-yl) (2-fluoro-6-methoxyphenoxy)methyl]morpholine] | 2740 | 40 | –
26 | Fc1ccc([C@H](Oc2c(F)cccc2F)[C@H]2CNCCO2)cc1 [Example 66, (R)-2-[(S)-(2,6-Difluoro-phenoxy)-(4-fluoro-phenyl)-methyl]-morpholine] | 176 | 81 | –
27 | COc1ccccc1-c1ccccc1OCC1CNCCO1 (centres unmarked) [Example 74, 2-(2′-Methoxy-biphenyl-2-yloxymethyl)-morpholine] | ≥ 10000 | 55 | –
28 | Fc1ccc(C2CC2)c(O[C@@H](c2ccccn2)[C@@H]2CNCCO2)c1 [Example 164, (2S)-2-[(S)-(2-cyclopropyl-5-fluorophenoxy)(pyridin-2-yl)methyl]morpholine] | 3070 | 13 | –
29 | Cc1ccc(-c2cc(F)ccc2OCC2CNCCO2)cc1 (single isomer, unassigned) [Example 75] | 849 | 22 | –
30 | Fc1cccc(F)c1O[C@@H](c1ccccc1)[C@@H]1CNCCO1 [Example 36, (S)-2-[(S)-(2,6-Difluoro-phenoxy)-phenyl-methyl]-morpholine] | 471 | 3.7 | –
31 | CCOc1ccccc1O[C@@H](c1cccc(C)n1)[C@@H]1CNCCO1 [Example 107, (2S)-2-[(S)-(2-ethoxyphenoxy)(6-methylpyridin-2-yl)methyl]morpholine] | 3670 | 27 | –
32 | COc1ncccc1O[C@@H](c1ccccc1)[C@@H]1CNCCO1 [Example 166, (2S)-2-[(S)-[(2-methoxypyridin-3-yl)oxy](phenyl)methyl]morpholine] | 1350 | 8 | –
33 | CCOc1ccccc1O[C@H](c1ccccn1)[C@@H]1CNCCO1 [Example 20, (S)-2-[(R)-(2-Ethoxy-phenoxy)-pyridin-2-yl-methyl]-morpholine] | ≥ 10000 | 593 | –
34 | Brc1ccccc1OC(c1ccccc1)[C@H]1CNCCO1 (stereo partly drawn) [Example 112, (2R)-2-[(2-bromophenoxy)(phenyl)methyl]morpholine] | 105 | 17 | –
35 | Brc1ncccc1O[C@@H](c1ccccc1)[C@@H]1CNCCO1 [Example 41, (S)-2-[(S)-(2-Bromo-pyridin-3-yloxy)-phenyl-methyl]-morpholine] | 17 | 17 | –
36 | Fc1ccc(O[C@@H](c2ccccc2)[C@@H]2CNCCO2)c(C2CC2)c1 [Example 119, (2S)-2-[(S)-(2-cyclopropyl-4-fluorophenoxy)(phenyl)methyl]morpholine] | 66 | 23 | –
37 | N#Cc1ccccc1OC(c1cccnc1)[C@@H]1CNCCO1 (stereo partly drawn) [Example 24, (2S,3R)-2-(Morpholin-2-yl-pyridin-3-yl-methoxy)-benzonitrile] | 7720 | 210 | –
38 | Fc1cccc(F)c1OC(c1ncco1)[C@@H]1CNCCO1 (mixture of isomers) [Example 196, (S)-2-[(2,6-difluorophenoxy)(1,3-oxazol-2-yl)methyl]morpholine] | ≥ 10000 | 9 | –
39 | Fc1cccc(Br)c1O[C@@H](c1ccccn1)[C@@H]1CNCCO1 [Example 186, (2S)-2-[(S)-(2-bromo-6-fluorophenoxy)(pyridin-2-yl)methyl]morpholine] | 1260 | 8 | –
40 | COc1cccc([C@H](Oc2ccccc2Br)[C@@H]2CNCCO2)n1 [Example 187, (2S)-2-[(S)-(2-bromophenoxy)(6-methoxypyridin-2-yl)methyl]morpholine] | 224 | 15 | –
41 | c1ccc(Cc2ccccc2O[C@@H](c2ccccn2)[C@@H]2CNCCO2)cc1 [Example 128, (2S)-2-[(S)-(2-benzylphenoxy)(pyridin-2-yl)methyl]morpholine] | 3320 | 11 | –
